Legend:
human CB2 receptors = target: T1, human CB2 receptors (Homo sapiens, UniProt P34972); experiment: human CB2 radioligand binding assay ([3H]CP 55,940 competition); settings: human CB2 (Ki, nM), HEK293 membranes, 0.5 nM [3H]CP 55,940
T1 construct: expressed in transfected cells; host or cells: HEK293
How it was run: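 Displacement of 0.5 nM [3H]CP 55,940 over 0.01 nM-10 μM test compound, measured on human CB2 membranes from stably transfected HEK293 cells. Incubation 90 min at 30 °C in Tris/EDTA/MgCl2/BSA, pH 7.4, then filter-bound radioactivity counted; 10 μM unlabeled CP 55,940 defined nonspecific binding.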

Rat CB1 = target: T2, Rat CB1 (Rattus norvegicus, UniProt P20272); experiment: rat CB1 cyclase functional assay (HitHunter cAMP); type: cell-based; settings: Rat CB1 cyclase (EC50, nM), HEK cells, forskolin 37 μM
T2 construct: expressed in transfected cells; host or cells: HEK
T2 sequence (P20272 whole entry): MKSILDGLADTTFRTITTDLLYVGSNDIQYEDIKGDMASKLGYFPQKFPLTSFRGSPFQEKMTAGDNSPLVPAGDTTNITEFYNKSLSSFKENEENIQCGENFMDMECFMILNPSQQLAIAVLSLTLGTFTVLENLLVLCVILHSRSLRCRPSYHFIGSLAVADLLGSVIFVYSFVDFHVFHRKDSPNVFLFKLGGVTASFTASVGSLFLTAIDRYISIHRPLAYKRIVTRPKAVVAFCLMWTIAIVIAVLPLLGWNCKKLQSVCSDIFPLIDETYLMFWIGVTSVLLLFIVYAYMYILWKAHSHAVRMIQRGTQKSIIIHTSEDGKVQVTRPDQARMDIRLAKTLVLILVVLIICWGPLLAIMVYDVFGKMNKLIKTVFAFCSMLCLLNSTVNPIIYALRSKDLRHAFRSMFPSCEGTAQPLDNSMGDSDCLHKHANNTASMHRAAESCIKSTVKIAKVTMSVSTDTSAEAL
How it was run: (§1)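 HEK cells expressing rat CB1 or CB2, 10,000 cells/well, incubated 20 min at 37° C with test ligands plus forskolin (37 μM for CB1, 18 μM for CB2) in DPBS with 0.01% BSA. cAMP read by enzyme-complementation luminescence after lysis; EC50 from sigmoidal dose-response fit.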

[1] = pharmacokinetic studies in rats; settings: male, Sprague-Dawley, rat, in vivo; for clearance / half-life: iv, 3 micromole/kg; for bioavailability: po, 10 micromole/kg
Experimental: Male Sprague-Dawley rats, weighing 250-400 g, were obtained from Charles Rivers Laboratories. Pharmacokinetic studies were conducted in three groups of rats; each group contained three animals. All groups were dosed with a solution formulation. The first group of three rats received an intravenous dose, administered under isoflurane anesthetic. The second group received an intraperitoneal dose and the third group received an oral dose, administered by gavage. Sequential blood samples were obtained from a tail vein of each animal for 8-24 hours after dosing. Plasma was separated by centrifugation and stored frozen until analysis.
Half life […] and plasma clearance values are based on intravenous administration (3 micromole/kg).
Half life (t1/2) and plasma clearance values are based on intravenous administration (3 micromole/kg).

rat CB2 [2] = target: T3, rat CB2 (Rattus norvegicus, UniProt Q9QZN9); experiment: rat CB2 cyclase functional assay (HitHunter cAMP); type: cell-based; design: expressed in transfected cells; host or cells: HEK; settings: rat CB2 cyclase (EC50, nM), HEK cells, forskolin 18 μM
T3 sequence (Q9QZN9 1-360): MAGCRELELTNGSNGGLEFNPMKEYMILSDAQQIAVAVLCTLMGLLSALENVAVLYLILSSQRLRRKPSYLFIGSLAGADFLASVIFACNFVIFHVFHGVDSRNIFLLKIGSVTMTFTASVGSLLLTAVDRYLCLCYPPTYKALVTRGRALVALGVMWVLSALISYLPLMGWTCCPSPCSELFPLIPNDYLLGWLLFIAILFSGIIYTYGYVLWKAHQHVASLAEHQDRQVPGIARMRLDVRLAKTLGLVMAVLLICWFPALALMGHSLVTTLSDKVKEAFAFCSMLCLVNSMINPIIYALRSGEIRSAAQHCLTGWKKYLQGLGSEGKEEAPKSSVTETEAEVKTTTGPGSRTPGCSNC
How it was run: as §1

rat CB2 [3] = target: T3, rat CB2; experiment: rat CB2 radioligand binding assay ([3H]CP 55,940 competition); design: expressed in transfected cells; host or cells: HEK293; settings: rat CB2 (Ki, nM), HEK293 membranes, 0.5 nM [3H]CP 55,940
How it was run: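 Competition binding against 0.5 nM [3H]CP 55,940 (pH 7.4 buffer with 0.5 mg/mL BSA, 30 °C, 45 min), with displacers spanning 0.01 nM–10 μM at five concentrations. Receptor source: stably transfected HEK293 membranes, 20 μg/well. Nonspecific binding defined by 10 μM unlabeled CP 55,940; readout by filtration and counting.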

T1 sequence (P34972 whole entry): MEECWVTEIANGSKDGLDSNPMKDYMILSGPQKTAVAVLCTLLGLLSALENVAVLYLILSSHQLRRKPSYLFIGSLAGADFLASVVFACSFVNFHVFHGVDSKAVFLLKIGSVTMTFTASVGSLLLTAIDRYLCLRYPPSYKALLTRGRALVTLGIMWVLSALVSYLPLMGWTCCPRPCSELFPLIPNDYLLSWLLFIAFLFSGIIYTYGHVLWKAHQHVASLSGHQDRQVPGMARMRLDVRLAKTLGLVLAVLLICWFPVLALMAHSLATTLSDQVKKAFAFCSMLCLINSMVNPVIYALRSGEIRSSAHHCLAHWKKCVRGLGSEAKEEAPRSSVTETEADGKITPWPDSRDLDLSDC

Row | Structure (SMILES) | Ki (human CB2 receptors) | EC50 (Rat CB1) | clearance [1] | half-life [1] | bioavailability [1] | EC50 (rat CB2 [2]) | Ki (rat CB2 [3])
1 | Cn1c(C(C)(C)C)c/c(=N\C(=O)c2cc(C(F)(F)F)ccc2OCC(C)(C)O)n1C[C@H]1CCCO1 [Example 5, N-{(3E)-5-tert-butyl-1-methyl-2-[(2R)-tetrahydrofuran-2-ylmethyl]-1,2-dihydro-3H-pyrazol-3-ylidene}-2-(2-hydroxy-2-methylpropoxy)-5-(trifluoromethyl)benzamide] | 10 nM | 7690 nM | 18.3 mL/min/kg | 2.1 h | 37% | 0.22 nM | 5.5 nM
2 | Cn1c(C(C)(C)C)c/c(=N\C(=O)c2cc(C(F)(F)F)ccc2OCCC(C)(C)O)n1C[C@H]1CCCO1 [Example 20, N-{(3E)-5-tert-butyl-1-methyl-2-[(2R)-tetrahydrofuran-2-ylmethyl]-1,2-dihydro-3H-pyrazol-3-ylidene}-2-(3-hydroxy-3-methylbutoxy)-5-(trifluoromethyl)benzamide] | 35 nM | 6850 nM | 13.3 mL/min/kg | 3.9 h | 27% | 0.57 nM | 11 nM
3 | Cn1c(C(C)(C)C)c/c(=N\C(=O)c2cc(C(F)(F)F)ccc2OCCC(C)(C)O)n1CC1CC1 [Example 51, N-[(3E)-5-tert-butyl-2-(cyclopropylmethyl)-1-methyl-1,2-dihydro-3H-pyrazol-3-ylidene]-2-(3-hydroxy-3-methylbutoxy)-5-(trifluoromethyl)benzamide] | 80 nM | > 27000 nM | 8.33 mL/min/kg | 3.2 h | 52% | 0.46 nM | 15 nM
4 | Cn1c(C(C)(C)C)c/c(=N\C(=O)c2cc(C(F)(F)F)ccc2OCCS(C)(=O)=O)n1C[C@H]1CCCO1 [Example 56] | 66 nM | 2780 nM | – | – | – | 0.93 nM | 28 nM
5 | CSCCOc1ccc(C(F)(F)F)cc1C(=O)/N=c1\cc(C(C)(C)C)n(C)n1C[C@H]1CCCO1 [Example 57] | 11 nM | 7530 nM | – | – | – | 1.4 nM | 1.9 nM
6 | CSCCCOc1ccc(C(F)(F)F)cc1C(=O)/N=c1\cc(C(C)(C)C)n(C)n1C[C@H]1CCCO1 [Example 58] | 3.9 nM | > 27000 nM | – | – | – | 0.7 nM | 5.1 nM
7 | Cn1c(C(C)(C)C)c/c(=N\C(=O)c2cc(C(F)(F)F)ccc2OCCCS(C)(=O)=O)n1C[C@H]1CCCO1 [Example 60, N-{(3E)-5-tert-butyl-1-methyl-2-[(2R)-tetrahydrofuran-2-ylmethyl]-1,2-dihydro-3 H-pyrazol-3-ylidene}-2-[3-(methylsulfonyl)propoxy]-5-(trifluoromethyl)benzamide] | 92 nM | > 27000 nM | – | – | – | 0.26 nM | 42 nM
8 | Cn1c(C(C)(C)C)c/c(=N\C(=O)c2cc(C(F)(F)F)ccc2OC[C@@H]2CCCN2)n1C[C@H]1CCCO1 [Example 62, N-{(3E)-5-tert-butyl-1-methyl-2-[(2R)-tetrahydrofuran-2-ylmethyl]-1,2-dihydro-3 H-pyrazol-3-ylidene}-2-[(2S)-pyrrolidin-2-ylmethoxy]-5-(trifluoromethyl)benzamide] | 82 nM | > 27000 nM | – | – | – | 0.28 nM | 21 nM
9 | Cn1c(C(C)(C)C)c/c(=N\C(=O)c2cc(C(F)(F)F)ccc2OC[C@@H]2CCN2S(C)(=O)=O)n1CC1CC1 [Example 63, N-[(3E)-5-tert-butyl-2-(cyclopropylmethyl)-1-methyl-1,2-dihydro-3H-pyrazol-3-ylidene]-2-{[(2S)-1-(methylsulfonyl)azetidin-2-yl]methoxy}-5-(trifluoromethyl)benzamide] | 301 nM | > 27000 nM | – | – | – | 2.5 nM | 139 nM
10 | Cn1c(C2(C)CC2)c/c(=N\C(=O)c2cc(C(F)(F)F)ccc2OCCC(C)(C)O)n1C[C@H]1CCCO1 [Example 68, 2-(3-hydroxy-3-methylbutoxy)-N-{(3E)-1-methyl-5-(1-methylcyclopropyl)-2-[(2 R)-tetrahydrofuran-2-ylmethyl]-1,2-dihydro-3H-pyrazol-3-ylidene}-5-(trifluoromethyl)benzamide] | 77 nM | > 27000 nM | 40 mL/min/kg | 2.2 h | 25% | 0.2 nM | 13 nM
11 | Cn1c(C2(C)CC2)c/c(=N\C(=O)c2cc(C(F)(F)F)ccc2OCC(C)(C)O)n1C[C@H]1CCCO1 [Example 70, 2-(2-hydroxy-2-methylpropoxy)-N-{(3E)-1-methyl-5-(1-methylcyclopropyl)-2-[(2 R)-tetrahydrofuran-2-ylmethyl]-1,2-dihydro-3H-pyrazol-3-ylidene}-5-(trifluoromethyl)benzamide] | 27 nM | > 27000 nM | 30 mL/min/kg | 2.3 h | 46% | 0.47 nM | 4.4 nM
12 | CN1CC[C@H]1COc1ccc(C(F)(F)F)cc1C(=O)/N=c1\oc(C(C)(C)C)cn1C[C@H]1CCCO1 [Example 74, N-[(2Z)-5-tert-butyl-3-[(2R)-tetrahydrofuran-2-ylmethyl]-1,3-oxazol-2(3 H)-ylidene]-2-{[(2S)-1-methylazetidin-2-yl]methoxy}-5-(trifluoromethyl)benzamide] | 188 nM | 3350 nM | – | – | – | 0.42 nM | 96 nM
13 | CN1CCC[C@H]1COc1ccc(C(F)(F)F)cc1C(=O)/N=c1\oc(C(C)(C)C)cn1CC1CCC1 [Example 75] | 42 nM | 1360 nM | – | – | – | 0.19 nM | 44 nM
14 | CC(C)(C)c1cn(C[C@H]2CCCO2)/c(=N/C(=O)c2cc(C(F)(F)F)ccc2OCCN2CCCC2)o1 [Example 77, N-[(2Z)-5-tert-butyl-3-[(2R)-tetrahydrofuran-2-ylmethyl]-1,3-oxazol-2(3 H)-ylidene]-2-(2-pyrrolidin-1-ylethoxy)-5-(trifluoromethyl)benzamide] | 96 nM | 2560 nM | – | – | – | 0.1 nM | 73 nM
15 | CC(=O)NCCOc1ccc(C(F)(F)F)cc1C(=O)/N=c1\cc(C(C)(C)C)n(C)n1C[C@H]1CCCO1 [Example 78, 2-[2-(acetylamino)ethoxy]-N-{(3E)-5-tert-butyl-1-methyl-2-[(2R)-tetrahydrofuran-2-ylmethyl]-1,2-dihydro-3H-pyrazol-3-ylidene}-5-(trifluoromethyl)benzamide] | 15 nM | 8880 nM | – | – | – | 1.9 nM | 18 nM
16 | CCCCn1/c(=N/C(=O)c2cc(C(F)(F)F)ccc2OCC(C)(C)O)cc(C(C)(C)C)n1C [Example 81, N-[(3E)-2-butyl-5-tert-butyl-1-methyl-1,2-dihydro-3H-pyrazol-3-ylidene]-2-(2-hydroxy-2-methylpropoxy)-5-(trifluoromethyl)benzamide] | 44 nM | 3360 nM | 3.33 mL/min/kg | 5 h | 61% | 0.5 nM | 25 nM
17 | Cn1c(C(C)(C)C)c/c(=N\C(=O)c2cc(C(F)(F)F)ccc2OC[C@@H]2CCCCN2)n1C[C@H]1CCCO1 [Example 88, N-{(3E)-5-tert-butyl-1-methyl-2-[(2R)-tetrahydrofuran-2-ylmethyl]-1,2-dihydro-3 H-pyrazol-3-ylidene}-2-[(2S)-piperidin-2-ylmethoxy]-5-(trifluoromethyl)benzamide] | 14 nM | 702 nM | – | – | – | 0.45 nM | 3.5 nM
